Results from US20120136050A1, “USE OF A MELATONIN AGONIST FOR THE TREATMENT OF SLEEP DISORDERS INCLUDING PRIMARY INSOMNIA” (VANDA PHARMACEUTICALS INC., priority 2009, published 2012).

What was measured:
[1] = test system: healthy male and female subjects with induced transient insomnia; experiment: Example 2: single oral dose study in induced transient insomnia (PSG); type: in vivo, human
Experimental: A multi-center, randomized, double-blind, placebo-controlled, parallel-group study was conducted to investigate the efficacy and safety of single oral doses of VEC-162 (20 mg, 50 mg, and 100 mg) and matching placebo in healthy male and female subjects with induced transient insomnia. Approximately four hundred subjects were randomized in approximately a 1:1:1:1 ratio to the treatment groups.
In general, a screening period began 14 to 35 days prior to the start of the evaluation period, which was Day 1. Prior to Day 1, subjects were asked to increase their sleep time to 9 hours per night. Drug, or placebo, was administered on Night 1, approximately 0.5 hour prior to lights off.
The primary efficacy variable was LPS. LPS is defined as the length of time elapsed between lights off and onset of persistent sleep. In this trial, persistent sleep is defined as the point at which 10 minutes of uninterrupted sleep has begun. Sleep was determined on the basis of polysomnography (PSG).
Wake After Sleep Onset (WASO): WASO is defined as the time spent awake between onset of sleep and Lights On during Night 1, determined by PSG.
Latency to Non-Awake (LNA): LNA is defined as the number of minutes to reach any stage of sleep.
Total Sleep Time (TST): TST is defined as the number of minutes spent asleep during the entire time in bed.

[2] = test system: circadian sleep-wake cycle; experiment: Clinical trial CN116-002, effects on the circadian sleep-wake cycle; type: in vivo, human; conditions: 50 mg
Experimental: The oral doses selected were based on safety and efficacy data obtained from previous Compound A pre-clinical and clinical trials. […] Though not optimally designed to assess the chronobiotic potential of Compound A, clinical trial CN116-002 measured the effects Compound A on the circadian sleep-wake cycle. […] The doses selected for the study (10 mg, 20 mg, 50 mg, and 100 mg) were within the expected dose range for efficacy. The safety of the selected doses for this study is supported by previous clinical studies. […] The highest dose in the study, 100 mg, is well within the safety margin established in both Phase I single and multiple ascending dose trials and in a Phase II study.

[3] = Particle size by laser diffraction (Malvern Mastersizer); type: physicochemical
Experimental: Particle size will also affect the dose selected. At larger particle sizes, i.e., D50 is greater than about 100 m, e.g., about 100 m to about 200 m oral doses at the higher end, i.e., up to about 100 mg are effective, whereas at smaller particle sizes, i.e., D50 is less than about 100 m, e.g., about 20 m to about 50 m, lower doses, i.e., less than about 100 mg, are useful, e.g., about 10 mg to about 80 mg and about 20 mg to about 50 mg. (Particle size measurements supporting the above were made laser diffraction using a Malvern Mastersizer. The D50 (D10, D90, D100) value means that 50% (10%, 90%, 100%) of the particles by weight are of the indicated diameter or smaller.) In one embodiment of the invention, the above doses are administered in immediate release form, i.e., a non-controlled release formulation.

[4] = test system: patients with chronic primary insomnia; experiment: Phase III placebo-controlled 4-week trial in chronic primary insomnia (PSG); type: in vivo, human; conditions: for fell asleep faster than placebo group (PSG): first night of treatment, p<0.001
Experimental: A phase III, multi-center, placebo-controlled, 4-week trial evaluated 322 patients with chronic primary insomnia. Patients were randomized to receive either 20 mg or 50 mg of Compound A or placebo over the course of four weeks. The primary endpoint consisted of the evaluation of the immediate and short-term (average of Nights 1 and 8) ability of Compound A to improve sleep onset as measured by Latency to Persistent Sleep (LPS) through polysomnography (PSG). Secondary endpoints evaluated Compound A's ability to maintain improvements on sleep onset after long-term (average of Nights 22 and 29) use of the compound as well as measures of sleep duration (Total Sleep Time, TST) and sleep maintenance (Wake After Sleep Onset, WASO). Patients were eligible for the study if symptoms of insomnia were chronic and LPS was greater than 30 minutes.

[5] = 50 mg single oral dose, p<0.001
[6] = single oral dose, conclusion from Examples 1 and 2
[7] = material used in Example 1 study
[8] = material used in Example 2 study, material used in sleep latency study
[9] = 20 mg, Nights 1 and 8 vs baseline, p<0.001 vs placebo
[10] = 20 mg, Nights 22 and 29 vs baseline, nss
[11] = 20 mg, Nights 22 and 29 vs baseline, p<0.001 vs placebo
[12] = 50 mg, Nights 1 and 8 vs baseline, p<0.001 vs placebo
[13] = 50 mg, Nights 22 and 29 vs baseline, nss

## CCC(=O)NC[C@@H]1C[C@H]1c1cccc2c1CCO2 [Compound A, N-[[(1R,2R)-2-(2,3-dihydro-1-benzofuran-4-yl)cycloproply]methyl]propanamide]
[1]; 20 mg single oral dose, p<0.001
  Latency to Persistent Sleep (LPS): Improvement compared with placebo: 21.5 min
[1]; 20 mg single oral dose, p<0.002
  Total Sleep Time (TST): Improvement compared with placebo: 33.7 min
[1]; 20 mg single oral dose, p<0.006
  Latency to Non-Awake (LNA): Improvement compared with placebo: 11.1 min
[1]; 20 mg single oral dose, p<0.02
  Wake After Sleep Onset (WASO): Improvement compared with placebo: 24.2 min
[1]; [5]
  Latency to Non-Awake (LNA): Improvement compared with placebo: 14.3 min
  Latency to Persistent Sleep (LPS): Improvement compared with placebo: 26.3 min
  Total Sleep Time (TST): Improvement compared with placebo: 47.9 min
[1]; 50 mg single oral dose, p=0.001
  Wake After Sleep Onset (WASO): Improvement compared with placebo: 33.7 min
[1]; 100 mg single oral dose, p<0.001
  Latency to Persistent Sleep (LPS): Improvement compared with placebo: 22.8 min
[1]; 100 mg single oral dose, p<0.002
  Latency to Non-Awake (LNA): Improvement compared with placebo: 12.3 min
[1]; 100 mg single oral dose, p<0.005
  Total Sleep Time (TST): Improvement compared with placebo: 29.6 min
[1]; 100 mg single oral dose, p=0.081
  Wake After Sleep Onset (WASO): Improvement compared with placebo: 17.5 min
[1]; all doses (20 mg, 50 mg, 100 mg)
  tolerability: well-tolerated
[1]; [6]
  efficacy of 20 mg relative to 100 mg: comparable or superior to 100 mg
  efficacy of 50 mg relative to 100 mg: more efficacious than 100 mg
[2]
  effect on circadian rhythms: consistently shifted circadian rhythms
[3]; [7]
  particle size D10: 10 µm
  particle size D50: 115 µm
  particle size D90: 316 µm
  particle size D100: 631 µm
[3]; [8]
  particle size D10: 5 µm
  particle size D50: 25 µm
  particle size D90: 72 µm
  particle size D100: 316 µm
[4]; 20 mg or 50 mg over four weeks
  tolerability and safety profile: well-tolerated and exhibited a safety profile generally similar to placebo
[4]; 20 mg, Nights 1 and 8 vs baseline, nss
  mean WASO improved by: 12.2 min
[4]; [9]
  mean LPS improved by: 45.0 min
  mean TST during the first third of the night improved by: 40.9 min
[4]; 20 mg, Nights 1 and 8 vs baseline, p<0.01 vs placebo
  mean WASO during the first third of the night improved by: 2.3 min
[4]; 20 mg, Nights 1 and 8 vs baseline, p=0.089 vs placebo
  mean TST improved by: 51.4 min
[4]; [10]
  mean WASO during the first third of the night improved by: 3.1 min
  mean WASO improved by: 17.7 min
[4]; [11]
  mean LPS improved by: 49.4 min
  mean TST during the first third of the night improved by: 45.2 min
[4]; 20 mg, Nights 22 and 29 vs baseline, p=0.057 vs placebo
  mean TST improved by: 60.3 min
[4]; 20 mg
  fell asleep faster than placebo group (PSG): 22.9 min
[4]; 50 mg, Nights 1 and 8 vs baseline, nss
  mean WASO improved by: 14.1 min
[4]; [12]
  mean LPS improved by: 46.4 min
  mean TST during the first third of the night improved by: 39.4 min
[4]; 50 mg, Nights 1 and 8 vs baseline, p<0.05 vs placebo
  mean WASO during the first third of the night improved by: 1.8 min
[4]; 50 mg, Nights 1 and 8 vs baseline, p=0.074 vs placebo
  mean TST improved by: 52.0 min
[4]; [13]
  mean WASO during the first third of the night improved by: 1.8 min
  mean WASO improved by: 10.2 min
[4]; 50 mg, Nights 22 and 29 vs baseline, nss vs placebo
  mean TST improved by: 48.6 min
[4]; 50 mg, Nights 22 and 29 vs baseline, p<0.01 vs placebo
  mean TST during the first third of the night improved by: 40.1 min
[4]; 50 mg, Nights 22 and 29 vs baseline, p=0.016 vs placebo
  mean LPS improved by: 45.1 min
[4]; 50 mg
  fell asleep faster than placebo group (PSG): 25.9 min
